Data on 18 compounds can be found in US20250215030A1, “STAT MODULATORS AND USES THEREOF” (Recludix Pharma, Inc., priority 2022, published 2025).

Assay [1] concerns the target T1, Recombinant STAT3 protein (STAT3(G127-I722)) (Homo sapiens, UniProt P40763).
T1 construct: STAT3(G127-I722)
In words: STAT3 Fluorescence Polarization (FP) Assay. The class given is binding. The conditions noted are these: STAT3(G127-I722) 25 nM, probe 5-FAM-GpYLPQTV-NH2 2 nM, 45-minute incubation. As to the method:
STAT3 Fluorescence Polarization (FP) Assay
An FP assay was developed to determine IC50 values for test substances. Recombinant STAT3 protein (STAT3(G127-I722)) at 25 nM was combined with a fluorescently labeled, phosphotyrosine peptide probe (5-FAM-GpYLPQTV-NH2) at 2 nM in FP buffer (10 mM HEPES pH 7.4, 50 mM NaCl, 1 mM EDTA, 0.05% Tween 20, 2 mM DTT). 50 μL of STAT3-probe mixture was added to serial diluted compounds in black, 96-well plates (Greiner BioOne 655076) to a final concentration of 1% DMSO. Reaction components were mixed, and FP was measured after 45-minute incubation at room temperature using a Tecan Spark multimode plate reader. FP signal (mP) was plotted against the log concentration of the test substances and IC50 values were calculated by nonlinear regression analysis using GraphPad Prism software. For STAT3 FP assay, A=≤100 nM; B=>100-1000 nM; C=>1-10 μM; and D=>10 μM.

Assay [2] has as its target T2, Recombinant STAT6 protein (STAT6(W123-T658)) (Homo sapiens, UniProt P42226).
T2 construct: STAT6(W123-T658)
T2 sequence (P42226 123-658): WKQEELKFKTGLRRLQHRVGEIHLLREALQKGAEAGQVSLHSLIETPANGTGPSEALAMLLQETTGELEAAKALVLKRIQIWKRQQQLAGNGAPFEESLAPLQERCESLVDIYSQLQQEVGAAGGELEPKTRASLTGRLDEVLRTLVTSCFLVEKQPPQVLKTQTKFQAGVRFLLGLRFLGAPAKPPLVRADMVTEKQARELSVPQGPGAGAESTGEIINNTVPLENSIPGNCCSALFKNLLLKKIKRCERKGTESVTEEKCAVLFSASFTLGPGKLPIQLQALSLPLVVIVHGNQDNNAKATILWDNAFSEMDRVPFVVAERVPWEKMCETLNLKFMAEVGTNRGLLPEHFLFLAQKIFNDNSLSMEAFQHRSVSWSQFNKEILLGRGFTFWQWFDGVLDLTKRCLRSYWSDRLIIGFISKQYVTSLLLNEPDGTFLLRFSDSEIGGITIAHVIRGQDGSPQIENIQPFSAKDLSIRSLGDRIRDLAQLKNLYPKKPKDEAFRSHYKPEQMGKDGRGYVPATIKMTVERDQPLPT
In words: STAT6 Fluorescence Polarization (FP) Assay. The following applies: STAT6(W123-T658) 250 nM, probe 5-FAM-ApYKPFQDLI-NH2 2 nM, 45-minute incubation. The format is binding. The method, then:
STAT6 Fluorescence Polarization (FP) Assay
An FP assay was developed to determine IC50 values for test substances. Recombinant STAT6 protein (STAT6(W123-T658)) at 250 nM was combined with a fluorescently labeled, phosphotyrosine peptide probe (5-FAM-ApYKPFQDLI-NH2) at 2 nM in FP buffer (10 mM HEPES pH 7.4, 50 mM NaCl, 1 mM EDTA, 0.05% Tween 20, 2 mM DTT). 50 μL of STAT6-probe mixture was added to serial diluted compounds in black, 96-well plates (Greiner BioOne 655076) to a final concentration of 1% DMSO. Reaction components were mixed, and FP was measured after 45-minute incubation at room temperature using a Tecan Spark multimode plate reader. FP signal (mP) was plotted against the log concentration of the test substances and IC50 values were calculated by nonlinear regression analysis using GraphPad Prism software. For STAT6 FP assay, A=≤300 nM; B=>300-3000 nM; C=>3-30 μM; and D=>30 μM.

T1 sequence (P40763 127-722, species assumed): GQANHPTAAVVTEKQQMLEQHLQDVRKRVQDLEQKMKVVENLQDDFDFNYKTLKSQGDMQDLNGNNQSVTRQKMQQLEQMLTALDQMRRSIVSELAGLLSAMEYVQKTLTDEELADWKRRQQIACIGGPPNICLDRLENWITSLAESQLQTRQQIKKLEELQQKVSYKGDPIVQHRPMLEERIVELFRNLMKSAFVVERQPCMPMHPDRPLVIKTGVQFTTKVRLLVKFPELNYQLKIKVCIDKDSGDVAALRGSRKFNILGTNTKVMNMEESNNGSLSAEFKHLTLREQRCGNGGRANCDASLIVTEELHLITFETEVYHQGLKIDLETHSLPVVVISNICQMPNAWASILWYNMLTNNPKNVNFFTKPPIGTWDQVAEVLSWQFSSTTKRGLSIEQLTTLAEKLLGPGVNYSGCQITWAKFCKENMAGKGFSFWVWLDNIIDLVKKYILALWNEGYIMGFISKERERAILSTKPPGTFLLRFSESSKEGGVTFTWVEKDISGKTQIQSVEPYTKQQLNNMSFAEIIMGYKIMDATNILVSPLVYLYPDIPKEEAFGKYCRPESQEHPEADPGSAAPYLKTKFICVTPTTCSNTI

What is called IC50 is the midpoint of a concentration-inhibition curve. As for `CN1CCN(c2ccncc2C2CN(C(=O)[C@@H]3CC[C@@H]4C[C@H]5C[C@H]5C[C@H](NC(=O)c5cc6cc([C@H](F)P(=O)(O)O)ccc6s5)C(=O)N43)C2)CC1` (single isomer, unassigned) [Example 403], the figures for the 50% inhibitory concentration (IC50) in assay [1] and in assay [2] were under 0.1 µM and 3 to 30 µM, respectively.

Consider `CN1CCN(c2ccncc2C2CN(C(=O)[C@@H]3CC[C@@H]4C[C@H]5C[C@H]5C[C@H](NC(=O)c5cc6cc([C@@H](F)P(=O)(O)O)ccc6s5)C(=O)N43)C2)CC1` (single isomer, unassigned) [Example 404], for which the values for the IC50 in assay [1] and in assay [2] were under 0.1 µM and over 30 µM, respectively.

As for `O=C(N[C@H]1C[C@@H]2C[C@@H]2C[C@H]2CC[C@@H](C(=O)N3CC(c4cnccc4N4CCOCC4)C3)N2C1=O)c1cc2cc([C@@H](F)P(=O)(O)O)ccc2s1` (single isomer, unassigned) [Example 405], the figures for the IC50 in assay [1] and in assay [2] were under 0.1 µM and 3 to 30 µM, respectively.

In the case of `O=C(N[C@H]1C[C@@H]2C[C@@H]2C[C@H]2CC[C@@H](C(=O)N3CC(c4cnccc4N4CCOCC4)C3)N2C1=O)c1cc2cc([C@H](F)P(=O)(O)O)ccc2s1` (single isomer, unassigned) [Example 406], the IC50 in assay [1] is under 0.1 µM; in assay [2] it was 3 to 30 µM.

Regarding `CN(C)c1ccncc1C1CN(C(=O)[C@@H]2CC[C@@H]3C[C@H]4C[C@H]4C[C@H](NC(=O)c4cc5cc([C@H](F)P(=O)(O)O)ccc5s4)C(=O)N32)C1` (single isomer, unassigned) [Example 407], the IC50 in assay [1] is under 0.1 µM; in assay [2], 3 to 30 µM.

Take `CN(C)c1ccncc1C1CN(C(=O)[C@@H]2CC[C@@H]3C[C@H]4C[C@H]4C[C@H](NC(=O)c4cc5cc([C@@H](F)P(=O)(O)O)ccc5s4)C(=O)N32)C1` (single isomer, unassigned) [Example 408]: the IC50 in assay [1] is under 0.1 µM; in assay [2] it was 3 to 30 µM.

With `COC[C@@H]1CCN1c1ccncc1C1CN(C(=O)[C@@H]2CC[C@@H]3C[C@H]4C[C@H]4C[C@H](NC(=O)c4cc5cc([C@@H](F)P(=O)(O)O)ccc5s4)C(=O)N32)C1` (single isomer, unassigned) [Example 410], the IC50 fell in the range of 1 to 10 µM in assay [1] and 3 to 30 µM in assay [2].

Take `COC[C@@H]1CCN1c1ccncc1C1CN(C(=O)[C@@H]2CC[C@@H]3C[C@H]4C[C@H]4C[C@H](NC(=O)c4cc5cc([C@H](F)P(=O)(O)O)ccc5s4)C(=O)N32)C1` (single isomer, unassigned) [Example 411]: the IC50 in assay [1] was 0.1 to 1 µM; in assay [2] it was 0.3 to 3 µM.

For `N#C[C@@H]1[C@@H](c2cccnc2)CN(C(=O)[C@@H]2CC[C@@H]3C[C@H]4C[C@H]4C[C@H](NC(=O)c4cc5cc([C@H](F)P(=O)(O)O)ccc5s4)C(=O)N32)C12CC2` (single isomer, unassigned) [Example 429], the IC50 is 1 to 10 µM in assay [1] and at most 0.3 µM in assay [2].

As to `CN(C)c1ccncc1[C@@H]1CN(C(=O)[C@@H]2CC[C@@H]3C[C@H]4C[C@H]4C[C@H](NC(=O)c4cc5cc([C@H](F)P(=O)(O)O)ccc5s4)C(=O)N32)C2(CC2)C1` (single isomer, unassigned) [Example 433], the IC50 in assay [1] was under 0.1 µM; in assay [2], 0.3 to 3 µM.

With `CN(C)c1ccncc1[C@H]1CN(C(=O)[C@@H]2CC[C@@H]3C[C@H]4C[C@H]4C[C@H](NC(=O)c4cc5cc([C@H](F)P(=O)(O)O)ccc5s4)C(=O)N32)C2(CC2)C1` (single isomer, unassigned) [Example 435], the IC50 in assay [1] is under 0.1 µM; in assay [2], at most 0.3 µM.

Turning to `CC12CC1C[C@H](NC(=O)c1cc3cc(C(F)(F)P(=O)(O)O)ccc3s1)C(=O)N1[C@H](CC[C@H]1C(=O)N1CC(c3cccnc3)C1)C2` (stereo in doubt) [Example 231, (difluoro(2-(((3S,6S,7aR,8aS,9aR)-8a-methyl-5-oxo-3-(3-(pyridin-3-yl)azetidine-1-carbonyl)decahydro-1H-cyclopropa[d]pyrrolo[1,2-a]azocin-6-yl)carbamoyl)benzo[b]thiophen-5-yl)methyl)phosphonic acid], the results for the IC50 in assay [1] and in assay [2] were under 0.1 µM and 3 to 30 µM, respectively.

As for `COC1(c2nccn2C)CN(C(=O)[C@@H]2CC[C@@H]3CC4(C)CC4C[C@H](NC(=O)c4cc5cc(C(F)(F)P(=O)(O)O)ccc5s4)C(=O)N32)C1` (stereo in doubt) [Example 239, (difluoro(2-(((3S,6S,7aR,8aS,9aR)-3-(3-methoxy-3-(1-methyl-1H-imidazol-2-yl)azetidine-1-carbonyl)-8a-methyl-5-oxodecahydro-1H-cyclopropa[d]pyrrolo[1,2-a]azocin-6-yl)carbamoyl)benzo[b]thiophen-5-yl)methyl)phosphonic acid], the IC50 is under 0.1 µM in assay [1] and 3 to 30 µM in assay [2].

Turning to `CC(=O)N1CCC2C1CN2C(=O)[C@@H]1CC[C@@H]2C[C@H]3C[C@H]3C[C@H](NC(=O)c3cc4cc(C(F)P(=O)(O)O)ccc4s3)C(=O)N21` (stereo in doubt) [Example 289, ((2-(((3S,6S,7aS,8aR,9aR)-3-((1S,5S)-2-acetyl-2,6-diazabicyclo[3.2.0]heptane-6-carbonyl)-5-oxodecahydro-1H-cyclopropa[d]pyrrolo[1,2-a]azocin-6-yl)carbamoyl)benzo[b]thiophen-5-yl)fluoromethyl)phosphonic acid], the IC50 in assay [1] was 0.1 to 1 µM; in assay [2] it was 3 to 30 µM.

As for `C[C@H]1CN(C(=O)C2CN(C(=O)[C@@H]3CC[C@@H]4C[C@H]5C[C@H]5C[C@H](NC(=O)c5cc6cc(C(F)(F)P(=O)(O)O)ccc6s5)C(=O)N43)C2)CCO1` [Compound 12, (difluoro(2-(((3S,6S,7aS,8aR,9aR)-3-(3-((S)-2-methylmorpholine-4-carbonyl)azetidine-1-carbonyl)-5-oxodecahydro-1H-cyclopropa[d]pyrrolo[1,2-a]azocin-6-yl)carbamoyl)benzo[b]thiophen-5-yl)methyl)phosphonic acid], the IC50 is under 0.1 µM in assay [1] and 3 to 30 µM in assay [2].

For the compound `C[C@@H]1COCCN1C(=O)C1CN(C(=O)[C@@H]2CC[C@@H]3C[C@H]4C[C@H]4C[C@H](NC(=O)c4cc5cc(C(F)(F)P(=O)(O)O)ccc5s4)C(=O)N32)C1` [Compound 13, (difluoro(2-(((3S,6S,7aS,8aR,9aR)-3-(3-((R)-3-methylmorpholine-4-carbonyl)azetidine-1-carbonyl)5-oxodecahydro-1H-cyclopropa[d]pyrrolo[1,2-a]azocin-6-yl)carbamoyl)benzo[b]thiophen-5-yl)methyl)phosphonic acid], the values for the IC50 in assay [1] and in assay [2] were under 0.1 µM and 3 to 30 µM, respectively.

On to `C[C@H]1COCCN1C(=O)C1CN(C(=O)[C@@H]2CC[C@@H]3C[C@H]4C[C@H]4C[C@H](NC(=O)c4cc5cc(C(F)(F)P(=O)(O)O)ccc5s4)C(=O)N32)C1` [Compound 14, (difluoro(2-(((3S,6S,7aS,8aR,9aR)-3-(3-((S)-3-methylmorpholine-4-carbonyl)azetidine-1-carbonyl)-5-oxodecahydro-1H-cyclopropa[d]pyrrolo[1,2-a]azocin-6-yl)carbamoyl)benzo[b]thiophen-5-yl)methyl)phosphonic acid], for which the IC50 is under 0.1 µM in assay [1] and 3 to 30 µM in assay [2].

As for `O=C(N[C@H]1C[C@@H]2C[C@@H]2C[C@H]2CC[C@@H](C(=O)N3CC(C(=O)N4CCOCC4)C3)N2C1=O)c1cc2cc(C(F)(F)P(=O)(O)O)ccc2s1` [Compound 15, (difluoro(2-(((3S,6S,7aS,8aR,9aR)-3-(3-(morpholine-4-carbonyl)azetidine-1-carbonyl)-5-oxodecahydro-1H-cyclopropa[d]pyrrolo[1,2-a]azocin-6-yl)carbamoyl)benzo[b]thiophen-5-yl)methyl)phosphonic acid], the values for the IC50 in assay [1] and in assay [2] were under 0.1 µM and 3 to 30 µM, respectively.
